Tests used:
[1] = test system: skin flap (system described in Example 1); experiment: In vivo topical application of caffeine in the flap system of Example 1
Method: (§1) Compounds will frequently bind to the skin. Thus, after being absorbed through the outer protective layer, the stratum corneum, there is a possibility that the compound being tested will not be absorbed into the blood stream. It is anticipated that caffeine could be such a product. […] It is surprising to observe peak levels of caffeine within 30 minutes of topical application in the in vivo situation using the system described in Example 1. […] This confirmed the notion that there are binding sites of caffeine within the dermis.

[2] = as above; settings: rat, topical or ocular; in vivo, topical application; read-out: time of peak levels of caffeine
Method: as §1

[3] = test system: host rat graft or human graft (rat skin vs. human skin); settings: in vivo
From the text: The objective of this experiment was to determine differences in absorption, rat skin vs. human skin, rat graft vs. rat host skin, with a second agent, caffeine.

human skin = experiment: In vitro topical application of caffeine to human skin; assay type: in vitro ADME
Method: as §1

rat/rat flap = experiment: Role of blood flow on percutaneous absorption (iontophoresis of phenylephrine), rat/rat flap; assay type: in vivo; settings: iontophoresis, circumscribed area
Method: (§2) In this example the experimental procedure described in Example 1 was followed and a rat/rat flap was prepared using an identical procedure. The purpose of this example is to illustrate the role of blood flow on percutaneous absorption processes. In this example, blood flow was locally altered by iontophoresis of phenylephrine. […] The experiment was repeated two weeks later in a nontreated mode, i.e., no alteration in the microcirculation. […] In the situtaton where there is no alteration in the mircocirculation, peak levels occur in approximately 10 minutes. There results reveal that in situations, where compounds are rapidly absorbed, microcirculation to the skin is of critical importance.

flap = settings: rat, in vivo
From the text: Following an intravenous injection of fluorescein, the amount of fluorescein that moves into tissue, and the rapidity with which it clears, depends upon the volume of blood to the area, the adequacy of venous drainage, and renal clearance. The influx and clearance of fluorescein, as measured with a surface hand-held dermofluorometer, has been evaluated as a function of time after occluding either the supplying artery or the draining vein.
Instrumentation used included: (1) Dermatome (Brown Electro-Dematome, Model 666, Zimmer Inc., Warsaw, IN) to generate the split-thickness skin grafts; (2) an operating microscope (Model OPMI 6-SD Carl Zeiss, West Germany) equipped with a fiberoptic illuminator (Model 310187, Dyonics, Andover, MA), to isolate the microvasculature supplying the skin flap; (3) Laser Doppler flow velocimeter (LD 5000, Med Pacific, Seattle, WA)--to noninvasively assess microcirculation of the skin; (4) electromagnetic blood flow transducer, C type 0.5 mm, 0.8 mm, and 1 mm in diameter (C&C INstruments, Culver City, CA)--to directly assess blood flow through the vessels supplying and draining the flap; and (5) a hand-held fiberoptic dermofluorometer (Fluoroscan-Santa Barbara Technology, Santa Barbara, CA), to assess blood flow by monitoring the appearance and clearance of fluorescein in the flap.

[4] = test system: rat/rat skin sandwich flap (enzyme in the skin, deaminase); experiment: Metabolism of vidarabine in the rat/rat skin sandwich flap; assay type: in vivo; settings: radiolabeled vidarabine on rat/rat flap, half-cell diffusion chamber
From the text: (§3) In this example, the procedure followed in Example 1 was followed to produce a rat/rat skin flap with accessible vasculature.
Test compounds were applied to either the host or the graft side of the flap. Test compounds in their vehicles were placed in either a 1.5 cm diameter well, prepared from a HolliSeal® skin barrier (a sheet of silicone material with adhesive on both sides) (Hollister Incorporated, Libertyville, IL), or in a half-cell diffusion chamber. The HolliSeal well is generally covered with Parafilm to prevent evaporation. […]
(§4) At the time of an experiment, with the animal under Ketamine anesthesia, the vessels supplying and draining the flap were exposed through an incision over the inguinal ligament. […] Concentration of radiolabeled compound, or its metabolities, in the blood were subsequently assessed by liquid scintillation counting and chromatographic techniques. Concentrations in the donor chamber were sampled periodically and quantitated in a similar manner.
Additional experiments, using an antiviral substance, vidarabine, have been performed to assess the metabolic activity in the skin. […] Accordingly, radiolabeled vidarabine was placed on a rat/rat skin sandwich flap system, and the amount of vidarabine and its metabolite, ara-H, was measured in the blood draining the flap.

[5] = test system: rat/human flap (host side); experiment: Transdermal flux of benzoic acid in the rat/human flap, host side; assay type: in vivo
From the text: (§5) A skin flap was generated by incising the abdominal skin of the rat along three sides. The donor STSG was trimmed to approximate the size of the epigastric flap and was placed in the wound, with the epidermis facing the abdominal musculature of the host. The overlying epigastric host skin was returned to its normal anatomic position. The epigastric skin and the STSG were sutured in place, creating a sandwich having a vascular pedicle sandwiched between the skin layers. This surgical procedure produced a flap which received essentially all of its blood from the superficial epigastric vessels.
(§6) Two weeks later, the femoral vessels distal to the origin of the superficial epigastric vessels were surgically isolated and divided. This manipulation maximized the blood flow from the femoral artery to the sandwich flap. The flap was raised and isolated on its neurovascular pedicle (a single artery, vein, and nerve) using the operating microscope.
(§7) The donor site on the rat's abdomen was covered with a STSG from another syngeneic animal and sutured in place. The flap, on its isolated vascular pedicle, was moved through a subcutaneous tunnel to the rat's dorsum, where it was sutured in place.
Test compounds were applied to either the host or the graft side of the flap. […]
as §4, with “manner. […]” for “manner.”
In this experiment, 20 ug of ^14 C benzoic acid (4.5 uCi) in 95% ethanol was applied to the host side of the flap. […] Thereafter steady state was attained and flux was calculated to be 0.045 uCi/min/cm^2. […]

[6] = test system: rat/rat flap (host skin / grafted skin); experiment: Absorption of benzoic acid across host vs. graft side of the rat/rat skin flap (flap blood sampling); assay type: in vivo
From the text: Breeding pairs of nude rats were obtained from the Animal Production Facility of the National Cancer Institutes (Frederick, MD) and the colony was expanded by mating male rats homozygous for nude (athymic) with females heterozygous for nude.
as §5, §6, §7, §3
Test compounds were applied to either the host or the graft side of the flap. Test compounds in their vehicles were placed in either a 1.5 cm diameter well, prepared from a HolliSeal® skin barrier (a sheet of silicone material with adhesive on both sides) (Hollister Incorporated, Libertyville, IL), or in a half-cell diffusion chamber. The HolliSeal well is generally covered with Parafilm to prevent evaporation. The half-cell diffusion chamber has a 2.7 ml volume, an impeller to avoid problems of unstirred solutions, a water jacket to maintain a constant temperature, and a sampling port (Dependable Scientific Glass, Salt Lake City, UT).
In an initial series of experiments ^14 C benzoic acid, specific activity 58.6 mCi/mM (New England Nuclear, Boston MA) in phosphate buffered saline, was used in various concentrations in the HolliSeal well and the half-cell diffusion chamber. These experiments were designed to compare the absorption of benzoic acid across the host and graft sides of the flap as a means of validating the system. In another series of experiments 3H-vidarabine, specific activity 38 mCi/mg (2.7 ml), was added to a half-cell diffusion chamber to validate the flap as a system to study the metabolism of a drug as it crosses the skin. 3H-vidarabine, specific activity 38 mCi/mg (2.7 ml), was added to a half-cell diffusion chamber attached to rat/rat skin sandwich flaps, which had previously been tape-stripped.
At the time of an experiment, with the animal under Ketamine anesthesia, the vessels supplying and draining the flap were exposed through an incision over the inguinal ligament. A venotomy was made in the femoral vein proximal to the juncture of the superficial epigastric vein to sample flap blood. A venotomy was also made in the contralateral femoral view to sample systemic blood. The blood samples (approximately 40 ul) were collected periodically in heparinized microhematocrit capillary tubes. Concentration of radiolabeled compound, or its metabolities, in the blood were subsequently assessed by liquid scintillation counting and chromatographic techniques. Concentrations in the donor chamber were sampled periodically and quantitated in a similar manner. […]

[7] = Role of blood flow on percutaneous absorption (iontophoresis of phenylephrine), rat/rat flap; assay type: in vivo; settings: rat, in vivo, topical or ocular
Method: as §2

[8] = test system: rat/rat skin sandwich flap (enzyme in the skin, deaminase); settings: stated as known; cited from earlier work
[9] = grafted side, three weeks later

In the case of `Cn1c(=O)c2c(ncn2C)n(C)c1=O` [caffeine], the “effect of a second dose on absorption” value ([1]; in vivo, two doses) is reported as “greater than predicted absorption”, the “binding in the skin” value ([1]; lower layer of skin / dermis, in vitro vs. in vivo comparison) is reported as “there are binding sites within the lower layer of skin which bind caffeine” and the Tmax [2] is reported as no more than 30 min. For the same compound, the “increase in absorption, rat skin relative to human skin” value [3] was roughly 8 fold, the “time until appearance in the donor chamber” value (human skin; topical, human skin) was 6 to 12 h and the “effect of a second dose on absorption” value (human skin; two doses) was “did not alter absorption”.

In the case of `CNC[C@H](O)c1cccc(O)c1` [phenylephrine], the “effect on local microcirculation” value (rat/rat flap) is reported as “decreased microcirculation”.

In the case of `O=C1OC2(c3ccc(O)cc3Oc3cc(O)ccc32)c2ccccc21` [fluorescein], the “appearance of fluorescein in the flap” value (flap) is reported as “failure of the appearance of fluorescein in the flap”.

For `O=c1[nH]cnc2c1ncn2[C@@H]1O[C@H](CO)[C@@H](O)[C@@H]1O` [ara-H], the “back-diffusion through the skin into the donor chamber” value [4] was “diffused back through the skin into the donor chamber”.

In the case of `O=C(O)c1ccccc1` [benzoic acid], the steady state flux ([5]; 20 ug (4.5 uCi) in 95% ethanol) is reported as 0.045 uCi/min/cm^2, the “time of peak flux” value ([5]; 20 ug (4.5 uCi) in 95% ethanol) is reported as “one” and the “time of peak flux” value ([5]; half-cell diffusion chamber, maximal hydration of the skin) is reported as no more than 10 min. For the same compound, the “decrease in concentration in the donor well (time course)” value ([6]; donor well) was “linear with time”, the “benzoic acid concentration in the donor well, start of decrease” value ([6]; donor well, decreasing from) was 2.2 µg/mL and the “benzoic acid concentration in the donor well, end of decrease” value ([6]; donor well, decreasing to) was 0.75 µg/mL. For the same compound, the “course of flux after the peak” value [6, 9] was “even more rapid decline”, the “peak flux across the grafted side” value [6, 9] was 2.2 uCi/min/cm^2 and the “course of flux after the peak” value ([6]; host skin) was “decreased rapidly”. The “time of peak flux” value ([6]; host skin, HolliSeal well, 0.52 uCi/ul in unbuffered water, 100 ul) was 30 min, the “flux across host skin” value ([6]; host skin, assuming a blood flow of 1.5 ml/min) was 0.84 uCi/min/cm^2 and the total amount absorbed ([6]; same for host and grafted side) was 1.04 µg·min/µL. The Tmax ([7]; decreased microcirculation (iontophoresis of phenylephrine), read-out: time of peak benzoic acid levels in flap blood (converted)) was roughly 140 min and the Tmax ([7]; no alteration in the microcirculation, two weeks later, read-out: time of peak levels in flap blood (converted)) was roughly 10 min.

For `Nc1ncnc2c1ncn2[C@@H]1O[C@H](CO)[C@@H](O)[C@@H]1O` [vidarabine], the “metabolism by an enzyme in the skin, deaminase” value [8] is listed as “metabolized by an enzyme in the skin, deaminase”.

From patent publication US4677968A, “Methods of testing the reaction of various substances on living human skin” (priority 1986, dated 1987)
